Data reported in ChEMBL document CHEMBL1201862, “PubChem BioAssay data set” (2004).
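Protocol summary: plate cells (96-well), add compound at 5 concentrations, incubate 48 h, interpolate endpoints linearly. GI50 is the concentration that inhibits growth by half.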 Activity calls are given as the source filed them. No stated cut-off is given here; in the data, active = GI50 up to about 1.1 µM and inactive = higher.

Key:
Assay in all cases: NCI anticancer screen, dose series, 48 h
BT-549 = tested on: BT-549
HCC 2998 = tested on: HCC 2998
HCT-116 = tested on: HCT-116
HL-60 = tested on: HL-60
HOP-62 = tested on: HOP-62
HT-29 = tested on: HT-29
K562 = tested on: K562
MDA-MB-231 = tested on: MDA-MB-231
MOLT-4 = tested on: MOLT-4
NCI-H226 = tested on: NCI-H226
NCI-H23 = tested on: NCI-H23
NCI-H460 = tested on: NCI-H460
NCI-H522 = tested on: NCI-H522
OVCAR-3 = tested on: OVCAR-3
OVCAR-8 = tested on: OVCAR-8
SF-295 = tested on: SF-295
SK-MEL-5 = tested on: SK-MEL-5
T47D = tested on: T47D
TK-10 = tested on: TK-10

SMILES	GI50 (BT-549)	GI50 (HCC 2998)	GI50 (HCT-116)	GI50 (HL-60)	GI50 (HOP-62)	GI50 (HT-29)	GI50 (K562)	GI50 (MDA-MB-231)	GI50 (MOLT-4)	GI50 (NCI-H226)	GI50 (NCI-H23)	GI50 (NCI-H460)	GI50 (NCI-H522)	GI50 (OVCAR-3)	GI50 (OVCAR-8)	GI50 (SF-295)	GI50 (SK-MEL-5)	GI50 (T47D)	GI50 (TK-10)
CCCCCC1=C2C(c3ccc(OC)cc3)=C(N)C(c3ccc(OC)cc3)=C3NC(=O)C(C=C1)C32 (configuration not stated)	96.4 µM (inactive)	> 100 µM (inactive)	57.5 µM (inactive)	> 100 µM (inactive)	21.8 µM (inactive)	> 100 µM (inactive)	42.1 µM (inactive)	> 100 µM (inactive)	56.4 µM (inactive)	21.9 µM (inactive)	48.4 µM (inactive)	28.1 µM (inactive)	22.4 µM (inactive)	57.1 µM (inactive)	30.3 µM (inactive)	36.3 µM (inactive)	> 100 µM (inactive)	70.1 µM (inactive)	60.7 µM (inactive)
COC(=O)C1Cc2ccc(C)cc2C1=O (configuration not stated)	> 100 µM (inactive)	> 100 µM (inactive)	> 100 µM (inactive)	25.8 µM (inactive)	> 100 µM (inactive)	> 100 µM (inactive)	> 100 µM (inactive)	> 100 µM (inactive)	> 100 µM (inactive)	> 100 µM (inactive)	> 100 µM (inactive)	> 100 µM (inactive)	> 100 µM (inactive)	> 100 µM (inactive)	> 100 µM (inactive)	> 100 µM (inactive)	50.7 µM (inactive)	> 100 µM (inactive)	> 100 µM (inactive)
CC(=O)O[C@@H]1C(C2CCCCC2)C=[N+]([O-])O[C@@H]1OC1CCCC1(c1ccccc1)c1ccccc1 (some centres not stated)	12.4 µM (inactive)	8.57 µM (inactive)	4.06 µM (inactive)	1.6 µM (inactive)	14.9 µM (inactive)	2.09 µM (inactive)	3.61 µM (inactive)	8.45 µM (inactive)	3.32 µM (inactive)	16.6 µM (inactive)	11 µM (inactive)	13.3 µM (inactive)	2.07 µM (inactive)	2.7 µM (inactive)	2.04 µM (inactive)	14.4 µM (inactive)	14.3 µM (inactive)	2.45 µM (inactive)	14.5 µM (inactive)
CCn1cc(C(=O)O)c(=O)c2cc(F)c(N3CCN(CN4C(=O)/C(=N\c5ncc(Cc6cc(OC)c(OC)c(OC)c6)c(N)n5)c5cc(Cl)ccc54)CC3)cc21	> 100 µM (inactive)	42.2 µM (inactive)	74.3 µM (inactive)	20 µM (inactive)	> 100 µM (inactive)	> 100 µM (inactive)	15.9 µM (inactive)	> 100 µM (inactive)	0.38 µM (active)	> 100 µM (inactive)	> 100 µM (inactive)	> 100 µM (inactive)	> 100 µM (inactive)	> 100 µM (inactive)	> 100 µM (inactive)	> 100 µM (inactive)	> 100 µM (inactive)	> 100 µM (inactive)	83 µM (inactive)
NC(Cc1cccnn1)C(=O)O (configuration not stated)	> 100 µM (inactive)	> 100 µM (inactive)	> 100 µM (inactive)	> 100 µM (inactive)	> 100 µM (inactive)	> 100 µM (inactive)	> 100 µM (inactive)	> 100 µM (inactive)	> 100 µM (inactive)	> 100 µM (inactive)	> 100 µM (inactive)	> 100 µM (inactive)	> 100 µM (inactive)	> 100 µM (inactive)	> 100 µM (inactive)	> 100 µM (inactive)	> 100 µM (inactive)	> 100 µM (inactive)	> 100 µM (inactive)
CN1CCCC(OC(=O)c2cc3cc(CCl)ccc3oc2=O)C1 (configuration not stated)	21 µM (inactive)	18.3 µM (inactive)	19.2 µM (inactive)	2.07 µM (inactive)	25.8 µM (inactive)	19.5 µM (inactive)	27.9 µM (inactive)	21 µM (inactive)	29.6 µM (inactive)	23.9 µM (inactive)	19.3 µM (inactive)	19.1 µM (inactive)	15.9 µM (inactive)	14.2 µM (inactive)	28.8 µM (inactive)	25.2 µM (inactive)	17.3 µM (inactive)	32.7 µM (inactive)	18.9 µM (inactive)
O=C1C=CC(=O)c2c(O)c(N(CCCl)CCCl)c(Cl)c(O)c21	4.15 µM (inactive)	> 8.91 µM (inactive)	4.26 µM (inactive)	> 6.05 µM (inactive)	> 9.48 µM (inactive)	5.38 µM (inactive)	4.79 µM (inactive)	4.56 µM (inactive)	> 5.31 µM (inactive)	> 9.66 µM (inactive)	5.07 µM (inactive)	5.02 µM (inactive)	3.74 µM (inactive)	4.74 µM (inactive)	4.51 µM (inactive)	> 10 µM (inactive)	4.59 µM (inactive)	4.71 µM (inactive)	3.35 µM (inactive)
CC1(C)C2CCC1(CS(=O)(=O)Nc1ccccc1)C(=O)C2 (configuration not stated)	> 100 µM (inactive)	> 100 µM (inactive)	> 100 µM (inactive)	> 100 µM (inactive)	> 100 µM (inactive)	> 100 µM (inactive)	> 100 µM (inactive)	> 100 µM (inactive)	> 100 µM (inactive)	> 100 µM (inactive)	> 100 µM (inactive)	> 100 µM (inactive)	> 100 µM (inactive)	> 100 µM (inactive)	> 100 µM (inactive)	> 100 µM (inactive)	> 100 µM (inactive)	> 100 µM (inactive)	> 100 µM (inactive)
